Tests used:
CK1ϵ = CK1ϵ (Homo sapiens, UniProt P49674); test: CK1ϵ kinase assay (Caliper LABCHIP electrophoretic separation of fluoresceinated peptide substrate and product); assay type: biochemical; conditions: 200 pM CK1ϵ, 50 μM ATP, 1.5 μM peptide substrate, 22 hours at room temperature; read-out: CK1ε (IC50)
Description: (§1) CK1ϵ and CK1δ Kinase Assays
(§2) The kinase assay was performed in V-bottom 384-well plates.
(§3) The reaction was incubated at room temperature for 22 hours and terminated by adding 45 μl of 35 mM EDTA to each sample. The reaction mixture was analyzed on the Caliper LABCHIP®3000 (Caliper, Hopkinton, Mass.) by electrophoretic separation of the unphosphorylated substrate and phosphorylated product. […] Compounds were dissolved at 10 mM in dimethylsulfoxide (DMSO) and evaluated at eleven concentrations. IC50 values were derived by non-linear regression analysis.

CK1δ = CK1δ (Homo sapiens, UniProt P48730); test: CK1δ kinase assay (Caliper LABCHIP electrophoretic separation of fluoresceinated peptide substrate and product); assay type: biochemical; conditions: 200 pM CK1δ, 50 μM ATP, 1.5 μM peptide substrate, 22 hours at room temperature
Description: as §1, §2, §3

Sequence of CK1ϵ (P49674 whole entry): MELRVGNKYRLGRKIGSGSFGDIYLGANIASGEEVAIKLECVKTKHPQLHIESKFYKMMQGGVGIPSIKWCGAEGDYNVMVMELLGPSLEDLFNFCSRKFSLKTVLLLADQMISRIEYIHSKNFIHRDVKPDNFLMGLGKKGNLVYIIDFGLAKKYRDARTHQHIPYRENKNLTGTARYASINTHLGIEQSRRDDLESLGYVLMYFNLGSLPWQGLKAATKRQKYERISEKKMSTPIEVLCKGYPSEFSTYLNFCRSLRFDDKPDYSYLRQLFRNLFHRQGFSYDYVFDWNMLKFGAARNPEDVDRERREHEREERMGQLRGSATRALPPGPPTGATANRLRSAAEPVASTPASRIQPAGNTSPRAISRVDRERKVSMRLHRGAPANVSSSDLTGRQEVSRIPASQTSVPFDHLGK
Sequence of CK1δ (P48730 whole entry): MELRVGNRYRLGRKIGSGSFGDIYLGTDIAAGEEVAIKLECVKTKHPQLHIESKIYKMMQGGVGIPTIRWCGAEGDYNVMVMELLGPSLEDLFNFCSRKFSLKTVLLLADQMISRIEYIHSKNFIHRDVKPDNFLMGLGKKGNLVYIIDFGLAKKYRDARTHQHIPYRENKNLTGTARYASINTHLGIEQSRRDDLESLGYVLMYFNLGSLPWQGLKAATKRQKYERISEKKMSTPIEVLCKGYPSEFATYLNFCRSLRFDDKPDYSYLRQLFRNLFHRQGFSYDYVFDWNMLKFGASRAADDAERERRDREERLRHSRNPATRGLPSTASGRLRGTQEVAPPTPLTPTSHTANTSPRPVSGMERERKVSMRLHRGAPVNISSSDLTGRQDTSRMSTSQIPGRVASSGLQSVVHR

| Structure (SMILES) | IC50 (CK1ϵ) | IC50 (CK1δ) |
| --- | --- | --- |
| O=C(Nc1cn2nc(-c3c(-c4ccc(F)cc4)nn4c3COCC4)ccc2n1)c1ccnc(N2CCOCC2)c1 [Example 55, N-(6-(2-(4-Fluorophenyl)-6,7-dihydro-4H-pyrazolo[5,1-c][1,4]oxazin-3-yl)imidazo[1,2-b]pyridazin-2-yl)-2-morpholinoisonicotinamide] | 2.4 nM | 0.3 nM |
| O=C(Nc1cn2nc(-c3c(-c4ccc(F)cc4)nn4c3CN(C(=O)NC3CCCC3)CC4)ccc2n1)c1ccnc(F)c1 [Example 44, N-Cyclopentyl-3-(2-(2-fluoroisonicotinamido)imidazo [1,2-b]pyridazin-6-yl)-2-(4-fluorophenyl)-6,7-dihydropyrazolo[1,5-a]pyrazine-5(4H)-carboxamide] | 13.9 nM | 2 nM |
| O=C(Nc1cn2nc(-c3c(-c4ccc(F)cc4)nn4c3COCC4)ccc2n1)c1ccncc1 [Example 54, N-(6-(2-(4-Fluorophenyl)-6,7-dihydro-4H-pyrazolo[5,1-c][1,4]oxazin-3-yl)imidazo[1,2-b]pyridazin-2-yl)isonicotinamide] | 2.6 nM | 0.3 nM |
| O=C(Nc1cn2nc(-c3c(-c4ccc(F)cc4)nn4c3CNCC4)ccc2n1)c1ccnc(-c2cccnc2)c1 [Example 6, N-(6-(2-(4-Fluorophenyl)-4,5,6,7-tetrahydropyrazolo[1,5-a]pyrazin-3-yl)imidazo[1,2-b]pyridazin-2-yl)-[2,3′-bipyridine]-4-carboxamide] | 2.3 nM | 0.3 nM |
| O=C(Nc1cn2nc(-c3c(-c4ccc(F)cc4)nn4c3CN(C(=O)c3cccnc3)CC4)ccc2n1)c1ccnc(F)c1 [Example 21, 2-Fluoro-N-(6-(2-(4-fluorophenyl)-5-nicotinoyl-4,5,6,7-tetrahydropyrazolo[1,5-a]pyrazin-3-yl)imidazo[1,2-b]pyridazin-2-yl) isonicotinamide] | 3 nM | 0.2 nM |
| O=C(Nc1cn2nc(-c3c(-c4ccc(F)cc4)nn4c3CNCC4)ccc2n1)c1ccnc(C(F)(F)F)c1 [Example 10, N-(6-(2-(4-Fluorophenyl)-4,5,6,7-tetrahydropyrazolo[1,5-a]pyrazin-3-yl)imidazo[1,2-b]pyridazin-2-yl)-2-(trifluoromethyl)isonicotinamide] | 12.6 nM | 2.1 nM |
| O=C(Nc1cn2nc(-c3c(-c4ccc(F)cc4)nn4c3CN(C(=O)NC3(C(F)(F)F)CC3)CC4)ccc2n1)c1ccnc(F)c1 [Example 51, 3-(2-(2-Fluoroisonicotinamido)imidazo[1,2-b]pyridazin-6-yl)-2-(4-fluorophenyl)-N-(1-(trifluoromethyl)cyclopropyl)-6,7-dihydropyrazolo[1,5-a] pyrazine-5(4H)-carboxamide] | 12.3 nM | 1.5 nM |
| O=C(Nc1cn2nc(-c3c(-c4ccc(F)cc4)nn4c3CN(C(=O)c3ccncc3)CC4)ccc2n1)c1ccnc(F)c1 [Example 13, 2-Fluro-N-(6-(2-(4-fluorophenyl)-5-isonicotinoyl-4,5,6,7-tetrahydropyrazolo[1,5-a]pyrazin-3-yl)imidazo[1,2-b]pyridazin-2-yl) isonicotinamide] | 4.5 nM | 0.5 nM |
| Nc1cc(C(=O)Nc2cn3nc(-c4c(-c5ccc(F)cc5)nn5c4COCC5)ccc3n2)ccn1 [Example 58, 2-Amino-N-(6-(2-(4-fluorophenyl)-6,7-dihydro-4H-pyrazolo[5,1-c][1,4]oxazin-3-yl)imidazo[1,2-b]pyridazin-2-yl) isonicotinamide] | 2.7 nM | 0.2 nM |
| COC(=O)N1CCn2nc(-c3ccc(F)cc3)c(-c3ccc4nc(NC(=O)c5ccnc(F)c5)cn4n3)c2C1 [Example 33, Methyl 3-(2-(2-fluoroisonicotinamido)imidazo[1,2-b]pyridazin-6-yl)-2-(4-fluorophenyl)-6,7-dihydropyrazolo[1,5-a]pyrazine-5(4H)-carboxylate] | 1.9 nM | 0.3 nM |
| O=C(Nc1cn2nc(-c3c(-c4ccc(F)cc4)nn4c3CN(C3CCC3)CC4)ccc2n1)c1ccnc(F)c1 [Example 29, N-(6-(5-Cyclobutyl-2-(4-fluorophenyl)-4,5,6,7-tetrahydropyrazolo[1,5-a]pyrazin-3-yl)imidazo[1,2-b]pyridazin-2-yl)-2-fluoroisonicotinamide] | 6 nM | 0.4 nM |
| Cc1nc(C(F)(F)F)ccc1C(=O)Nc1cn2nc(-c3c(-c4ccc(F)cc4)nn4c3CNCC4)ccc2n1 [Example 11, N-(6-(2-(4-Fluorophenyl)-4,5,6,7-tetrahydropyrazolo[1,5-a]pyrazin-3-yl)imidazo[1,2-b]pyridazin-2-yl)-2-methyl-6-(trifluoromethyl)nicotinamide] | 15.2 nM | 1.8 nM |
| O=C(Nc1cn2nc(-c3c(-c4ccc(F)cc4)nn4c3CN(S(=O)(=O)c3cccc(F)c3)CC4)ccc2n1)c1ccnc(F)c1 [Example 38, 2-Fluoro-N-(6-(2-(4-fluorophenyl)-5-((3-fluorophenyl)sulfonyl)-4,5,6,7-tetrahydropyrazolo [1,5-a]pyrazin-3-yl)imidazo [1,2-b]pyridazin-2-yl) isonicotinamide] | 4.9 nM | 0.3 nM |
| O=C(Nc1cn2nc(-c3c(-c4ccc(F)cc4)nn4c3CN(C(=O)c3ccc(F)cc3)CC4)ccc2n1)c1ccnc(F)c1 [Example 14, 2-Fluoro-N-(6-(5-(4-fluorobenzoyl)-2-(4-fluorophenyl)-4,5,6,7-tetrahydropyrazolo[1,5-a]pyrazin-3-yl)imidazo[1,2-b]pyridazin-2-yl) isonicotinamide] | 3.1 nM | 0.5 nM |
| O=C(Nc1cn2nc(-c3c(-c4ccc(F)cc4)nn4c3CN(C(=O)c3ccccc3F)CC4)ccc2n1)c1ccnc(F)c1 [Example 23, 2-Fluoro-N-(6-(5-(2-fluorobenzoyl)-2-(4-fluorophenyl)-4,5,6,7-tetrahydropyrazolo[1,5-a]pyrazin-3-yl)imidazo[1,2-b]pyridazin-2-yl) isonicotinamide] | 0.4 nM | 0.1 nM |
| O=C(Nc1cn2nc(-c3c(-c4ccc(F)cc4)noc3C3CCOCC3)ccc2n1)c1ccnc(-c2cccnc2)c1 [Example 71, N-(6-(3-(4-Fluorophenyl)-5-(tetrahydro-2H-pyran-4-yl)isoxazol-4-yl)imidazo[1,2-b]pyridazin-2-yl)-[2,3′-bipyridine]-4-carboxamide] | 29 nM | 2.5 nM |
| O=C(Nc1cn2nc(-c3c(-c4ccc(F)cc4)noc3C3CCOCC3)ccc2n1)c1ccnc(N2CCOCC2)c1 [Example 70, N-(6-(3-(4-Fluorophenyl)-5-(tetrahydro-2H-pyran-4-yl)isoxazol-4-yl)imidazo[1,2-b]pyridazin-2-yl)-2-morpholinoisonicotinamide] | 27.3 nM | 3.8 nM |
| O=C(Nc1cn2nc(-c3c(-c4ccc(F)cc4)nn4c3CN(C(=O)Nc3ccncc3)CC4)ccc2n1)c1ccnc(F)c1 [Example 49, 3-(2-(2-Fluoroisonicotinamido)imidazo[1,2-b]pyridazin-6-yl)-2-(4-fluorophenyl)-N-(pyridin-4-yl)-6,7-dihydropyrazolo[1,5-a]pyrazine-5(4H)-carboxamide] | 7.3 nM | 0.7 nM |
| CC(C)(C)NC(=O)N1CCn2nc(-c3ccc(F)cc3)c(-c3ccc4nc(NC(=O)c5ccnc(F)c5)cn4n3)c2C1 [Example 41, N-(tert-Butyl)-3-(2-(2-fluoroisonicotinamido)imidazo[1,2-b]pyridazin-6-yl)-2-(4-fluorophenyl)-6,7-dihydropyrazolo[1,5-a]pyrazine-5 (4)-carboxamide] | 20.5 nM | 2.8 nM |
| O=C(Nc1cn2nc(-c3c(-c4ccc(F)cc4)nn4c3CCC4)ccc2n1)c1ccnc(F)c1 [Example 65, 2-Fluoro-N-(6-(2-(4-fluorophenyl)-5,6-dihydro-4H-pyrrolo[1,2-b]pyrazol-3-yl)imidazo[1,2-b]pyridazin-2-yl)isonicotinamide] | 4.7 nM | 0.4 nM |
| CC(C)C(=O)N1CCn2nc(-c3ccc(F)cc3)c(-c3ccc4nc(NC(=O)c5ccnc(F)c5)cn4n3)c2C1 [Example 22, 2-Fluoro-N-(6-(2-(4-fluorophenyl)-5-isobutyryl-4,5,6,7-tetrahydropyrazolo[1,5-a]pyrazin-3-yl)imidazo[1,2-b]pyridazin-2-yl) isonicotinamide] | 3.1 nM | 0.6 nM |
| O=C(Nc1cn2nc(-c3c(-c4ccc(F)cc4)nn4c3CN(C3CC3)CC4)ccc2n1)c1ccnc(F)c1 [Example 31, N-(6-(5-Cyclopropyl-2-(4-fluorophenyl)-4,5,6,7-tetrahydropyrazolo[1,5-a]pyrazin-3-yl)imidazo[1,2-b]pyridazin-2-yl)-2-fluoroisonicotinamide] | 1.1 nM | 0.1 nM |
| O=C(Nc1cn2nc(-c3c(-c4ccc(F)cc4)nn4c3COCC4)ccc2n1)c1cc(F)nc(F)c1 [Example 56, 2,6-Difluoro-N-(6-(2-(4-fluorophenyl)-6,7-dihydro-4H-pyrazolo[5,1-c][1,4]oxazin-3-yl)imidazo[1,2-b]pyridazin-2-yl) isonicotinamide] | 4 nM | 0.3 nM |
| O=C(Nc1cn2nc(-c3c(-c4ccc(F)cc4)nn4c3CN(C(=O)CCC(F)(F)F)CC4)ccc2n1)c1ccnc(F)c1 [Example 16, 2-Fluoro-N-(6-(2-(4-fluorophenyl)-5-(4,4,4-trifluorobutanoyl)-4,5,6,7-tetrahydropyrazolo[1,5-a]pyrazin-3-yl)imidazo[1,2-b]pyridazin-2-yl) isonicotinamide] | 4.9 nM | 0.8 nM |
| O=C(Nc1cn2nc(-c3c(-c4ccc(F)cc4)nn4c3CN(C(=O)Nc3ccc(C(F)(F)F)cc3)CC4)ccc2n1)c1ccnc(F)c1 [Example 47, 3-(2-(2-Fluoroisonicotinamido)imidazo[1,2-b]pyridazin-6-yl)-2-(4-fluorophenyl)-N-(4-(trifluoromethyl)phenyl)-6,7-dihydropyrazolo[1,5-a]pyrazine-5(4H)-carboxamide] | 146 nM | 12 nM |

From patent publication US9956220B2, “Imidazo-pyridazine derivatives as casein kinase 1 δ/ϵ inhibitors” (Bristol-Myers Squibb Company, priority 2014, dated 2018)
